The values that follow come from patent US10975037B2 (priority 2018, dated 2021).

Where two headings read alike, the source gives them in different places. Marks after values point to notes of the source that are not given here.

Test [1] addresses human RORγt ligand binding domain (RORγt LBD) (Homo sapiens (Human), UniProt P51449). Kind of test: RORγt ThermoFluor® assay (thermal shift binding). The essentials: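 Thermal shift with 0.065 mg/mL RORγt LBD and 60 μM 1,8-ANS in 100 mM Hepes pH 7.0, 10 mM NaCl, 2.5 mM GSH, 0.002% Tween-20.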
Background: Differential scanning fluorimetry follows unfolding on heating by fluorescence.

In test [2] the target is full-length human RORγt (Homo sapiens (Human), UniProt P51449). Nature of the test: RORγt (full-length human) reporter assay, conditions A or B, HEK293T cells. Type of test: cell-based. Particulars: for RORγt (FL) Reporter Assay A or B, % inhibition: 3 μM compound concentration (footnote *); for inhibition at 2 µM: 2 μM compound concentration; for inhibition at […]: 0.22 μM compound concentration (footnote *******). The essentials:
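Dual-luciferase read-out was taken after an overnight (16–20 h) compound exposure. Firefly data were scaled between DMSO-only and saturating reference compound, Renilla-normalized, then plotted against concentration for IC50.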
A general note: Reporter assays use an easily measured gene product as a stand-in for the process of interest.

[3] abbreviates: read-out: ThermoFluor® Assay, Kd.
The mark [4] stands for this setting: RORγt (FL) Reporter Assay A or B, IC50, HEK293T cells.
[5] abbreviates: HEK293T cells, read-out: RORγt (FL) Reporter Assay A or B, IC50.
Where [6] appears, read: HEK-293T, read-out: RORγt (FL) Reporter Assay A or B, % inhibition.

Chain of human RORγt ligand binding domain (RORγt LBD) (P51449 other isoform, or with tags, fused parts or gaps): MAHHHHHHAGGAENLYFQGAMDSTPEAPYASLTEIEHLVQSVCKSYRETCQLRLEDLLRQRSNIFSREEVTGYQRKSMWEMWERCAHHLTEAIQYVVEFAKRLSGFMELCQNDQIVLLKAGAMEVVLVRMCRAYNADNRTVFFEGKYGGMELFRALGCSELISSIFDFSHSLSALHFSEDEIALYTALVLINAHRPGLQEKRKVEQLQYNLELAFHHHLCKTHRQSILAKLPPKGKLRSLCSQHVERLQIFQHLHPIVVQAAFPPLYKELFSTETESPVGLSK
Chain of full-length human RORγt (P51449 other isoform, or with tags, fused parts or gaps): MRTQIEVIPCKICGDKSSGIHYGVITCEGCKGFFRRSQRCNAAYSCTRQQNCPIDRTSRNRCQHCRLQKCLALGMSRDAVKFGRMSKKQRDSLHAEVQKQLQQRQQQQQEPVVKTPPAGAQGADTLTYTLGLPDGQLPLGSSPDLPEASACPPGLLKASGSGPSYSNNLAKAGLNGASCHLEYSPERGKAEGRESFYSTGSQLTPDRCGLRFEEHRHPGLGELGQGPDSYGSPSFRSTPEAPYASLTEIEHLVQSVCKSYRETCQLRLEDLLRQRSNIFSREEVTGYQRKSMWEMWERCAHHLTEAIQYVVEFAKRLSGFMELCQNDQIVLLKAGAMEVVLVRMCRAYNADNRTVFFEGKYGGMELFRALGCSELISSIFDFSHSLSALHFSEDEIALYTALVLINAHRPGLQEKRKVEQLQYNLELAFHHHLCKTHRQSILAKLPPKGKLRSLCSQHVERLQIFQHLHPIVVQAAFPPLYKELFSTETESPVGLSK

In the case of `CCn1nc(C(=O)NC[C@]2(O)CC[C@@H](S(C)(=O)=O)CC2)c(Cl)c1-c1ccc(CCC(F)(F)F)cc1OC` [Example 39, 4-Chloro-1-ethyl-N-(((1s,4s)-1-hydroxy-4-(methylsulfonyl)cyclohexyl)methyl)-5-(2-methoxy-4-(3,3,3-trifluoropropyl)phenyl)-1H-pyrazole-3-carboxamide], the Kd (commonly the concentration at which binding is half-saturated) in test [1] (setting [3]) turned out to be 10 nM. The inhibition (in general, the drop in the measured response relative to a control, in per cent) at 6 µM in test [2] (HEK-293T, read-out: RORγt (FL) Reporter Assay A or B, % inhibition @ 6 μM, 6 μM compound concentration) turned out to be 85%. Further, the IC50 (as a rule, the midpoint of a concentration-inhibition curve) in test [2] (setting [4]) turned out to be 38 nM.
As to `CCn1nc(C(=O)NC[C@H]2CC[C@H](S(=O)(=O)NC)CC2)c(Cl)c1-c1ccc(CC(C)(C)C(F)(F)F)cc1OC(F)F` [Example 50, 4-Chloro-5-(2-(difluoromethoxy)-4-(3,3,3-trifluoro-2,2-dimethylpropyl)phenyl)-1-ethyl-N-(((1r,4r)-4-(N-methylsulfamoyl)cyclohexyl)methyl)-1H-pyrazole-3-carboxamide], the Kd in test [1] (setting [3]) was 0.1 nM. Besides, in test [2] (setting [5]), the IC50 came out at 3 nM.
For the compound `CCn1nc(C(=O)NC[C@H]2CC[C@H](S(N)(=O)=O)CC2)c(Cl)c1-c1ccc(CC(C)(C)C(F)(F)F)cc1OC(F)F` [Example 51, 4-Chloro-5-(2-(difluoromethoxy)-4-(3,3,3-trifluoro-2,2-dimethylpropyl)phenyl)-1-ethyl-N-(((1r,4r)-4-sulfamoylcyclohexyl)methyl)-1H-pyrazole-3-carboxamide], the dissociation constant (Kd) in test [1] (ThermoFluor® Assay, Kd) stood at 0.25 nM. Further, the inhibition at 1 µM in test [2] (HEK-293T, 1 μM compound concentration (footnote ***), read-out: RORγt (FL) Reporter Assay A or B, % inhibition) came to 113%. In addition, the IC50 in test [2] (setting [4]) is 4.6 nM.
In the case of `CCn1nc(C(=O)NC[C@H]2CC[C@H](S(=O)(=O)NC=O)CC2)c(Cl)c1-c1ccc(CC(C)(C)C(F)(F)F)cc1OC(F)F` [Example 67, 4-Chloro-5-(2-(difluoromethoxy)-4-(3,3,3-trifluoro-2,2-dimethylpropyl)phenyl)-1-ethyl-N-(((1r,4r)-4-(N-formylsulfamoyl)cyclohexyl)methyl)-1H-pyrazole-3-carboxamide], the Kd in test [1] (setting [3]) came out at 0.039 nM. Besides, the “RORγt (FL) Reporter Assay A or B, % inhibition” value (shortened to “RORγt … % inhibition”) in test [2] is on record as 118* %. The IC50 in test [2] (setting [5]) was determined as 56 nM.
Regarding `CCn1nc(C(=O)NC[C@H]2CC[C@H](S(=O)(=O)NC(C)=O)CC2)c(Cl)c1-c1ccc(CC(C)(C)C(F)(F)F)cc1OC(F)F` [Example 68, N-(((1r,4r)-4-(N-Acetylsulfamoyl)cyclohexyl)methyl)-4-chloro-5-(2-(difluoromethoxy)-4-(3,3,3-trifluoro-2,2-dimethylpropyl)phenyl)-1-ethyl-1H-pyrazole-3-carboxamide], the Kd in test [1] (setting [3]) stood at 0.7 nM. Further, the “RORγt … % inhibition” value in test [2] is given as 97* %. For the same compound, the IC50 in test [2] (setting [5]) was 39 nM.
Regarding `CCn1nc(C(=O)NC[C@H]2CC[C@H](S(=O)(=O)NC(N)=O)CC2)c(Cl)c1-c1ccc(CC(C)(C)C(F)(F)F)cc1OC(F)F` [Example 69, N-(((1r,4r)-4-(N-Carbamoylsulfamoyl)cyclohexyl)methyl)-4-chloro-5-(2-(difluoromethoxy)-4-(3,3,3-trifluoro-2,2-dimethylpropyl)phenyl)-1-ethyl-1H-pyrazole-3-carboxamide], the Kd in test [1] (setting [3]) turned out to be 0.29 nM. For the same compound, the “RORγt … % inhibition” value in test [2] is on record as 100* %. Further, the IC50 in test [2] (setting [5]) came to 51 nM.
For `CCC(=O)NS(=O)(=O)[C@H]1CC[C@H](CNC(=O)c2nn(CC)c(-c3ccc(CC(C)(C)C(F)(F)F)cc3OC(F)F)c2Cl)CC1` [Example 70, 4-Chloro-5-(2-(difluoromethoxy)-4-(3,3,3-trifluoro-2,2-dimethylpropyl)phenyl)-1-ethyl-N-(((r,4r)-4-(N-propionylsulfamoyl)cyclohexyl)methyl)-1H-pyrazole-3-carboxamide], in that order: 0.72 nM, 103* % and 23 nM.
With `CCn1nc(C(=O)NC[C@H]2CC[C@H](S(=O)(=O)NC(=O)NC)CC2)c(Cl)c1-c1ccc(CC(C)(C)C(F)(F)F)cc1OC(F)F` [Example 71, 4-Chloro-5-(2-(difluoromethoxy)-4-(3,3,3-trifluoro-2,2-dimethylpropyl)phenyl)-1-ethyl-N-(((1r,4r)-4-(N-(methylcarbamoyl)sulfamoyl)cyclohexyl)methyl)-1H-pyrazole-3-carboxamide], the Kd in test [1] (setting [3]) stood at 0.23 nM. The “RORγt … % inhibition” value in test [2] is given as 114* %. For the same compound, the half-inhibitory concentration (IC50) in test [2] (setting [5]) amounted to 13 nM.
For the compound `CCn1nc(C(=O)NC[C@H]2CC[C@H](S(C)(=O)=O)CC2)c(Cl)c1-c1ccc(CC(C)C)cc1OC` [Example 72, 4-Chloro-1-ethyl-5-(4-isobutyl-2-methoxyphenyl)-N-(((1r,4r)-4-(methylsulfonyl)cyclohexyl)methyl)-1H-pyrazole-3-carboxamide], the dissociation constant Kd in test [1] (setting [3]) turned out to be 0.29 nM. Besides, the inhibition at 2 µM in test [2] (setting [6]) is 67%. In test [2] (setting [4]), this compound displayed an IC50 of 10 nM.
Consider `CCn1nc(C(=O)NC[C@]2(O)CC[C@@H](S(C)(=O)=O)CC2)c(Cl)c1-c1ccc(CC(C)C)cc1OC` [Example 73, 4-Chloro-1-ethyl-N-(((1s,4s)-1-hydroxy-4-(methylsulfonyl)cyclohexyl)methyl)-5-(4-isobutyl-2-methoxyphenyl)-1H-pyrazole-3-carboxamide], for which, in test [1] (setting [3]), the Kd amounted to 0.63 nM. Further, the inhibition at 2 µM in test [2] (setting [6]) turned out to be 61%. Further, the IC50 in test [2] (setting [4]) turned out to be 11 nM.
`CCn1nc(C(=O)NC[C@H]2CC[C@H](S(C)(=O)=O)CC2)c(Cl)c1-c1ccc(CCC(C)C)cc1OC` [Example 74, 4-Chloro-1-ethyl-5-(4-isopentyl-2-methoxyphenyl)-N-(((1r,4r)-4-(methylsulfonyl)cyclohexyl)methyl)-1H-pyrazole-3-carboxamide]: the dissociation constant Kd in test [1] (setting [3]) is 0.33 nM. Also, in test [2] (HEK-293T, 0.67 μM compound concentration (footnote ****), read-out: RORγt (FL) Reporter Assay A or B, % inhibition), the inhibition at 0.67 µM stood at 50%. Further, in test [2] (setting [4]), the IC50 was determined as 38 nM.
On to `CCn1nc(C(=O)NC[C@]2(O)CC[C@@H](S(C)(=O)=O)CC2)c(Cl)c1-c1ccc(CCC(C)C)cc1OC` [Example 75, 4-Chloro-1-ethyl-N-(((1s,4s)-1-hydroxy-4-(methylsulfonyl)cyclohexyl)methyl)-5-(4-isopentyl-2-methoxyphenyl)-1H-pyrazole-3-carboxamide], for which the dissociation constant Kd in test [1] (setting [3]) was 0.88 nM. Further, in test [2] (setting [6]), the inhibition at 2 µM came out at 62%. Moreover, in test [2] (setting [4]), 25 nM corresponded to half-maximal inhibition (IC50).
As for `CCn1nc(C(=O)NC[C@H]2CC[C@H](S(C)(=O)=O)CC2)c(Cl)c1-c1ccc(CCCC(F)(F)F)cc1OC(F)F` [Example 76, 4-Chloro-5-(2-(difluoromethoxy)-4-(4,4,4-trifluorobutyl)phenyl)-1-ethyl-N-(((1r,4r)-4-(methylsulfonyl)cyclohexyl)methyl)-1H-pyrazole-3-carboxamide], in test [1] (setting [3]), the Kd amounted to 0.28 nM. In addition, the inhibition at […] in test [2] (setting [6]) came out at 103%. This compound also had an IC50 in test [2] (setting [4]) of 2.1 nM.
On to `CCn1nc(C(=O)NC[C@]2(O)CC[C@@H](S(C)(=O)=O)CC2)c(Cl)c1-c1ccc(CCCC(F)(F)F)cc1OC(F)F` [Example 77, 4-Chloro-5-(2-(difluoromethoxy)-4-(4,4,4-trifluorobutyl)phenyl)-1-ethyl-N-(((1s,4s)-1-hydroxy-4-(methylsulfonyl)cyclohexyl)methyl)-1H-pyrazole-3-carboxamide], for which the Kd in test [1] (setting [3]) came to 1.2 nM. The inhibition at 2 µM in test [2] (setting [6]) came out at 96%. For the same compound, half-maximal inhibition in test [2] (setting [4]) (IC50) was put at 5.6 nM.
Take `CCn1nc(C(=O)NC[C@H]2CC[C@H](S(C)(=O)=O)CC2)c(C)c1-c1ccc(CCCC(F)(F)F)cc1OC(F)F` [Example 78, 5-(2-(Difluoromethoxy)-4-(4,4,4-trifluorobutyl)phenyl)-1-ethyl-4-methyl-N-(((1r,4r)-4-(methylsulfonyl)cyclohexyl)methyl)-1H-pyrazole-3-carboxamide]: the dissociation constant Kd in test [1] (setting [3]) turned out to be 0.59 nM. Further, the inhibition at […] in test [2] (setting [6]) stood at 93%. In test [2] (setting [4]), this compound returned an IC50 of 12 nM.
